Measured values: patent US9662338B2, “Formulations of viloxazine” (Supernus Pharmaceuticals, Inc., priority 2012, dated 2017)

Conditions: steady state plasma levels at both 150 mg and 300 mg total daily dose; IR capsules TID
Procedure: A randomized, double blind, multicenter, placebo controlled clinical study was conducted to evaluate the efficacy of viloxazine in adults with ADHD. […] Subjects not tolerating the 300 mg/day dose were allowed at any time of the treatment phase to down titrate to 1 capsule TID for a total daily dose of 150 mg viloxazine base. […] Plasma samples were obtained up to six hours following dosing.

Q: For `CCOc1ccccc1OCC1CNCCO1` (racemic) [viloxazine, (RS)-2-[(2-ethoxyphenoxy)methyl]morpholine], which “clinical efficacy in adults with ADHD” value is on record?
A: demonstrated clinical efficacy
